Assay results reported in paper PMC7217877, “N-AS-triggered SPMs are direct regulators of microglia in a model of Alzheimer’s disease” (Nature Communications, 2020).
“And” between values parts separate entries of the source, which are not always exact repeats. Identical values can stand only once.

Legend:
[1] = system: immortalized human microglia; assay: ac-S565 COX2 in human microglia (western blot, immunofluorescence, Supplementary Fig 6b,c); assay type: cell-based; parameters: ac-S565 COX2 (western blot): scale not given here; details: for ac-S565 COX2 (western blot): sFig 6b
Protocol: To confirm the generation and roles of N-AS in neurons, cells from E18 C57BL/6 mice were prepared as previously described. Cortices were dissected and then dissociated followed by incubation in papain (Worthington) at 37 °C for 15 min. Neurons were plated on poly-L-lysine-coated coverslips with neuronal culture medium, serum-free Neurobasal medium (Gibco) containing 2% B27 supplements (Gibco), 1 mM Glutamax supplement (Gibco), and 100 U ml^−1 streptomycin/ 100 U ml^−1 penicillin (Gibco) at 37 °C in a humidified atmosphere of 5% CO2. Aβ 1–42 (10 μM, 24 h, Invitrogen, 03112) was exposed to neurons and the cells were analyzed for the generation and roles of N-AS. Primary astrocyte cultures were prepared from C57BL/6 mice as described previously. In brief, after removal of the meninges, postnatal day 7 (P7) mouse brain tissues were minced and incubated in a rocking water bath at 37 °C for 30 min in the presence of 0.25% trypsin-EDTA (Sigma-Aldrich). Enzyme-digested dissociated cells were triturated with astrocyte-specific medium (DMEM/F12 containing 10% FBS and 1% penicillin-streptomycin) and centrifuged at 155×g for 8 min. The pellet was resuspended in astrocyte-specific medium and passed through a 40-μm cell strainer. The filtrate was allowed pre-adherence for 30 min to remove any contamination from fibroblasts before being seeded in dishes and the addition of astrocyte-specific medium. To split the cells, Ara-C was added to the dishes and they were then placed in a heated shaker for 6–7 h. The medium was removed from the dishes, and trypsin-EDTA was added to the dish and incubated at 37 °C for 5–10 min. After centrifugation at 155×g for 8 min, the supernatant was removed, and the astrocytes were maintained in culture by feeding […] with astrocyte-specific medium. Primary microglia cultures were prepared from C57BL/6 mice as described previously. In brief, the cortices of 2-months-old mice were minced in Hibernate A (Gibco)/B27 supplements (Gibco) medium and dissociated using papain (Worthington) solution. After tissue trituration, cells were separated by Optiprep (Sigma-Aldrich) density gradient centrifugation. Microglia were plated with microglia-specific medium (DMEM/F12 containing 10% FBS and 1% penicillin-streptomycin). The immortalized human microglia (Applied Biologics Materials, T0251) were cultured in PriGrow III (Applied Biologics Materials, TM003) (supplemented with 10% FBS and 1% penicillin-streptomycin) at 37 °C in a humidified atmosphere of 5% CO2. […] The human microglia treated with Aβ 1–42 and/or zileuton was incubated with N-AS (2.5 μM, 2 h, Sigma-Aldrich, 01912), and were analyzed for the generation and roles of N-AS.
Thioflavin S (Sigma-Aldrich) staining was carried out according to previously described procedures. We used 6E10 (mouse, 1:100, Signet, SIG39300), anti-20G10 (mouse, 1:1000, provided by D. R. Howlett, GlaxoSmithKline, Harlow, Essex, UK) for Aβ42, anti-G30 (rabbit, 1:1000, provided by D. R. Howlett) for Aβ40, SMA (mouse, 1:400, Sigma-Aldrich, A2547), AT8 (mouse, 1:500, Thermo Fisher Scientific, MN1020), Caspase-3 (mouse, 1:200, Novus Biologicals, NB100-56708), ac-S565 (rabbit, 1:100), COX2 (mouse, 1:250, Thermo Fisher Scientific, 35-8200), Iba1 (rabbit, 1:500, Wako, 019-19941 and goat, Abcam, ab5076), NeuN (mouse, 1:500, Millipore, MAB177), GFAP (rabbit, 1:500, Dako, N1506 and chicken, 1:500, Abcam, ab4674), and Lamp1 (mouse, 1:200, Abcam, ab24170). The sections were analyzed with a laser-scanning confocal microscope (FV3000; Olympus) or with a BX51 microscope (Olympus). MetaMorph software (Molecular Devices) was used to quantification. Three-dimensional reconstruction of microglia was recorded and analyzed using IMARIS software (Bitplane)[11]. […]

[2] = molecular target: T1, SphK1 R57A (Homo sapiens, UniProt Q9NYA1, R57A); assay: filter binding assay of [3H] acetyl-CoA to SphK1
T1 construct: His (N); made in house
T1 sequence (Q9NYA1 whole entry R57A): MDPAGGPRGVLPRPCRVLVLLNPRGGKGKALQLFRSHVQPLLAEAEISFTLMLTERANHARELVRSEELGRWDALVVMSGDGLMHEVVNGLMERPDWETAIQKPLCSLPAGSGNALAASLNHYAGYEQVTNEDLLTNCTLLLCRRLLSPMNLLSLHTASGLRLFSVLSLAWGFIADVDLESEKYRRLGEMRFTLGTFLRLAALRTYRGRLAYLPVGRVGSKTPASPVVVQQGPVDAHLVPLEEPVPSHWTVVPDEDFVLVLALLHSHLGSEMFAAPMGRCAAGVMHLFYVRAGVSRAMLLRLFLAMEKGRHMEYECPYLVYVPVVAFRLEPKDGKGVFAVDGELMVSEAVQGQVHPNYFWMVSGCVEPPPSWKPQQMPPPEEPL
From the text: (§1) Single point mutations in SphK1 (R56A, R57A, R24A, R185A, D178A, and F192A) and COX2 (S565A, N181A, T564A, and S567A) were generated using the In-Fusion Cloning Kits (Clontech) and ORF cDNA expression plasmids of human SphK1 and COX2 gene (Sino Biological Inc, HG15679-NH and HG12036-NH), according to the manufacturer’s instructions. The forward and reverse primers described in Supplementary Table 4. The SphK1 WT, SphK1 mutants, COX2 WT, and COX2 mutant plasmids were transformed in the One shot TOP 10 competent cell (Invitrogen). The bacteria were grown in Luria-Bertani (LB, Invitrogen) plates supplemented with 50 μg ml^−1 kanamycin (Sigma-Aldrich) at 37 °C. The bacterial cell pellets were resuspended in lysis buffer containing 20 mM sodium phosphate (GE Healthcare), 500 mM NaCl (GE Healthcare), 20 mM imidazole (pH 7.4) (GE Healthcare), 0.2 mg ml^−1 lysozyme (Sigma-Aldrich), 20 μg ml^−1 DNase I (Roche), 1 mM MgCl2 (Sigma-Aldrich), and 1 mM PMSF (Sigma-Aldrich) before being lysed by sonication and clarified by centrifugation at 15,493×g for 10 min. Proteins were purified from the soluble fraction using His-Spin Trap columns (GE Healthcare) and the binding and acetylation assays were performed.
(§2) Briefly, SphK1 WT and mutant enzymes (1 mU) were resuspended in 100 μl reaction buffer (20 mM HEPES; pH 7.4, 50 mM NaCl, 10 mM MgCl2, 1 mM EGTA, 0.02% Triton-X100, and 100 μM sphingosine, all from Sigma-Aldrich). […] Briefly, COX2 WT and mutant enzymes (1 mU) were resuspended in 100 μl reaction buffer (20 mM HEPES; pH 7.4, 50 mM NaCl, 10 mM MgCl2, 1 mM EGTA, and 0.02% Triton-X100, all from Sigma-Aldrich). Reactions were initiated by adding [^14C] N-AS (1–200 μM (0.1–20 μCi), ARC UK Ltd, ARC-1024) and incubated at 37 °C for 1 h. The reactions were terminated by adding 100 μl of ice-cold reaction buffer containing 5 mM cold N-AS and immediately filtered through P30 filtermat (Perkin-Elmer), followed by five washes.
(§3) The binding velocity was plotted and the Kcat and KM values were calculated from the Michaelis-Menten analysis using the Sigma-plot program (ver 10.0, Systat software Inc.).

[3] = molecular target: T2, SphK1 R24A (Homo sapiens, UniProt Q9NYA1, R24A); assay: filter binding assay of [3H] acetyl-CoA to SphK1
T2 construct: His (N); made in house
T2 sequence (Q9NYA1 whole entry R24A): as the sequence (Q9NYA1 whole entry R57A) above, with R24A, A57R counted along it
From the text: as §1, §2, §3

[4] = molecular target: T3, SphK1 R185A (Homo sapiens, UniProt Q9NYA1, R185A); assay: filter binding assay of [3H] acetyl-CoA to SphK1
T3 construct: His (N); made in house
T3 sequence (Q9NYA1 whole entry R185A): as the sequence (Q9NYA1 whole entry R57A) above, with A57R, R185A counted along it
From the text: as §1, §2, §3

[5] = read-out: KM of acetyl-CoA binding to SphK1

Row | Compound | ac-S565 COX2 (western blot) ([1]; human microglia, Ab 50mM +) | Kcat of acetyl-CoA binding to SphK1 [2] [s⁻¹] | Km [2, 5] [µM] | Kcat of acetyl-CoA binding to SphK1 [3] [s⁻¹] | Km [3, 5] [µM] | Kcat of acetyl-CoA binding to SphK1 [4] [s⁻¹] | Km [4, 5] [µM] | S565 acetylation of COX2, in words ([1]; Aβ-affected human microglia + N-AS) | ac-S565 COX2 (immunofluorescence) ([1]; human microglia, Ab 50mM +, sFig 6c) | ac-S565 COX2 (western blot) ([1]; human microglia, Ab 50mM -)
1 | CC(=O)SCCNC(=O)CCNC(=O)[C@H](O)C(C)(C)COP(=O)(O)OP(=O)(O)OC[C@H]1O[C@@H](n2cnc3c(N)ncnc32)[C@H](O)[C@@H]1OP(=O)(O)O [Acetyl-CoA, acetyl-CoA] | 1.441 and 1.037 and 1.136 and 1.4813 and 1.401 and 1.309 | 0.000305 | 15.4 | 0.000273 | 14.4 | 0.000237 | 22.8 | – | – | –
2 | CCCCCCCCCCCCC/C=C/[C@@H](O)[C@H](CO)NC(C)=O [N-AS, N-((2S,3R,E)-1,3-Dihydroxyoctadec-4-en-2-yl)acetamide] | 1.839 and 1.211 and 1.367 and 1.737 and 1.941 and 1.552 | – | – | – | – | – | – | restored | 2.003 and 2.188 and 1.708 and 1.496 and 1.357 and 1.768 | 1.105 and 1.597 and 1.621 and 1.1016 and 1.489 and 0.9364
